# Literature values, collected in patent US20140171511A1, “Cough Reducing Product” (priority 2011, published 2014).
# Key:
# [1] = relative to capsaicin, used to calculate equivalent dose
# [2] = inhaled capsaicin as research tool, past 2 decades
# [3] = system: IBS and gut pain sensitivity; conditions: regular intake of capsaicin powder
SMILES,Typical equivalent strength [1] [%],serious adverse reactions [2],IBS and gut pain sensitivity [3]
"COc1cc(CNC(=O)CCCC/C=C/C(C)C)ccc1O [Capsaicin, 8-Methyl-N-vanillyl-trans-6-nonenamide]",100,no serious adverse reactions reported,improvement
COc1cc(CNC(=O)CCCCCC(C)C)ccc1O [Nordihydrocapsaicin],10,–,–
